According to article PMC11945486, “TAS1R2/TAS1R3 Single-Nucleotide Polymorphisms Affect Sweet Taste Receptor Activation by Sweeteners: The SWEET Project” (Nutrients, 2025):
Like-named read-outs stand apart in the source and are kept apart here. No end group written: not given here.

T1: human TAS1R2-WT/TAS1R3-WT (Homo sapiens, UniProt Q7RTX0+Q8TE23)
T1 construct: expressed in transfected cells; host or cells: HEK293T-Gα16gust44
T1 sequence (Q8TE23 20-839): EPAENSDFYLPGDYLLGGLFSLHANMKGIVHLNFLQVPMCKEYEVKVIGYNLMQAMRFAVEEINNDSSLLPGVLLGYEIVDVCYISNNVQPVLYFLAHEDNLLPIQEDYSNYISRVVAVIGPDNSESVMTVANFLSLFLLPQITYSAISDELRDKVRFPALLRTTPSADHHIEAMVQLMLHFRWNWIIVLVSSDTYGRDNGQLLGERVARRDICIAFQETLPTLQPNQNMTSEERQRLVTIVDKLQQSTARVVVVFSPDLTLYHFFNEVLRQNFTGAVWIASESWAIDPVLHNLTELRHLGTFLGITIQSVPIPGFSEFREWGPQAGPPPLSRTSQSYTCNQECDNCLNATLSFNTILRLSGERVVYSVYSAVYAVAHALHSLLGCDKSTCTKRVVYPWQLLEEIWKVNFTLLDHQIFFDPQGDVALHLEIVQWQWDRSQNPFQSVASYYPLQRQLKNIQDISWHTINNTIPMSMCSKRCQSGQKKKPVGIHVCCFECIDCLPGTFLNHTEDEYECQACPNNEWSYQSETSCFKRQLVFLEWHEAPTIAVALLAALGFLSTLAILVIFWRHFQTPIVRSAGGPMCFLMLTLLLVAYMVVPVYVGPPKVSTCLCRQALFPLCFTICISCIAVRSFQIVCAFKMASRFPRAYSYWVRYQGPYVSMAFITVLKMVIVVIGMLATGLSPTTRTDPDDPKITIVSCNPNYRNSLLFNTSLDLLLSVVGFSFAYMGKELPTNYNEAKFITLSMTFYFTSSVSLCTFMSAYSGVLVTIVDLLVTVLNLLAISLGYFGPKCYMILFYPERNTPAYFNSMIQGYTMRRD
T1 sequence (Q7RTX0 21-852): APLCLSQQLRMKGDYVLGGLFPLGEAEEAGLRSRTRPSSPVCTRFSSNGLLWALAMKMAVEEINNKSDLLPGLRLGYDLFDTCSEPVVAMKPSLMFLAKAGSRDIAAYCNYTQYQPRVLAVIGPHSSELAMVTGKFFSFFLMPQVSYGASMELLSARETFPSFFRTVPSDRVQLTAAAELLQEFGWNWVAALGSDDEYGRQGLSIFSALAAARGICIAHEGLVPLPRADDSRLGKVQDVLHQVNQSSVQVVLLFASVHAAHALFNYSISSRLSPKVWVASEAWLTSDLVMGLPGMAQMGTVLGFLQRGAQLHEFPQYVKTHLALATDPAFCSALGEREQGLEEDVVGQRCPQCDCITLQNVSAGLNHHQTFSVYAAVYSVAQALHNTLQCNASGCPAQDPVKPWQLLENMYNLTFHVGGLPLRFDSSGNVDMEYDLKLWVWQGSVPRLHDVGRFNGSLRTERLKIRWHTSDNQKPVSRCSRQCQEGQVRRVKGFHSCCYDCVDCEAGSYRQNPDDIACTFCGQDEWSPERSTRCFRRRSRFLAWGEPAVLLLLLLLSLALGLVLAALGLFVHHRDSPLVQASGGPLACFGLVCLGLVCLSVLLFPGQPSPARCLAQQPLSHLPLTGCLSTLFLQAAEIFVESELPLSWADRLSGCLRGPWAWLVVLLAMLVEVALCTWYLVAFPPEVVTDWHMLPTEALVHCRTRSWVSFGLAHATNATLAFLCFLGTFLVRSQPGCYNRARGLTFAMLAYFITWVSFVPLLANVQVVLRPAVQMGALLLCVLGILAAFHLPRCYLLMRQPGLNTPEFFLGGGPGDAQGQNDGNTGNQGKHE


Biological target: T1, human TAS1R2-WT/TAS1R3-WT
Test: Calcium mobilisation assay, HEK293T-Gα16gust44 cells, human sweet taste receptor WT
Assay type: cell-based
Settings: for Max ΔF/F0: maximal signal amplitude
Text: The coding sequences for TAS1R2 and TAS1R3 were commercially synthesised, and the human codon was optimised for expression in human cells. The coding sequences of human TAS1R2 and TAS1R3 were subcloned and inserted into the mammalian expression vectors pcDNA6/myc-HisA and pcDNA4/myc-HisA (Invitrogen; Thermo Fisher Scientific; Illkirch, France) between the EcoRI and NotI restriction sites, generating the plasmids pcDNA6-TAS1R2 and pcDNA4-TAS1R3, respectively. To increase protein expression in mammalian cells, an upstream start codon was used, which was a sequence called MAX, corresponding to the QBI SP163 element also described in pcDNA4-HisMax (Invitrogen; Thermo Fisher Scientific; Illkirch, France). To measure the expression level of the receptor by immunohistochemistry, we used the FLAG sequence ([…]) in the C-terminal position, which encodes the FLAG tag epitope. SNP variants of TAS1R2 and TAS1R3 were constructed based on […], respectively, using site-directed mutagenesis (Genewiz; Leipzig, Germany).
The HEK293T cells were kindly provided by Jay P. Slack (Givaudan Flavors Corporation; Cincinnati, OH, USA). HEK293T cells stably transfected with Gα16gust44 [43, 67] were seeded in poly-D-lysine-coated clear-bottom black 96-well plates (0.35 × 10^5 cells/well) in high-glucose DMEM supplemented with 2 mM GlutaMAX, 10% dialysed foetal bovine serum with penicillin/streptomycin and G418 (400 μg/mL) at 37 °C and 6.3% CO2 in a humidified atmosphere as previously reported. […] As a negative control, HEK293T cells were mock-transfected with the empty expression vector. After a further 24 h of incubation, the HEK293T cells were washed with C1 buffer (130 mM NaCl, 5 mM KCl, 10 mM HEPES pH 7.4 and 2 mM CaCl2). The 96-well plates containing the cells were then stimulated with sweet-tasting compounds. […] Different concentration ranges were tested depending on the sweet compound injected. The Ca^2+ changes were expressed as fractional changes in fluorescent light intensity: ΔF/F = (F − F0)/F0, where F was the fluorescent light intensity at each point, and F0 was the value of emitted fluorescent light prior to stimulus application. To calculate dose–response relationships, the changes in fluorescence upon stimulus application were averaged, mock-subtracted and baseline-corrected. The dose–response data obtained were adjusted using a 4-parameter logistic equation. The half-maximal effective concentrations (EC50 values) and maximal signal amplitudes were calculated using SigmaPlot software (version 15.0) (Systat Software; San Jose, CA, USA).
For in vitro calcium mobilisation assay performed on hTAS1R2-SNPs, hTAS1R3-SNPs and mTAS1R3-I60T, 6 to 7 concentrations were tested for each sweet compound, plus buffer alone. All concentration–receptor combinations were measured in duplicate, and each experiment was repeated at least 4 times (8 wells/concentration). Results were expressed for each concentration as ΔF/F mean ± SEM and represented as dose–response curves.

[1] = TAS1R2-WT + TAS1R3-WT, read-out: EC50
[2] = TAS1R2-WT/TAS1R3-WT, read-out: EC50

R1 = Variant EC50/WT EC50 (TAS1R2-WT + TAS1R3-WT)	Max ΔF/F0 (TAS1R2-WT + TAS1R3-WT)	EC50 [1] [µM]	R1 = Variant EC50/WT EC50 (TAS1R2-WT/TAS1R3-WT)	Max ΔF/F0 (TAS1R2-WT/TAS1R3-WT)	EC50 [2] [µM]	EC50 (TAS1R2-WT/TAS1R3-WT, brazzein) [µg/mL]	Molecule
1.0	0.31 ± 0.01	705 ± 7	1.0	0.28 ± 0.01	622 ± 45	–	CC1=CC(=O)NS(=O)(=O)O1 [Acesulfame K, acesulfame K]
1.0	0.71 ± 0.02	76.7 ± 4.4	1.0	1.13 ± 0.01	50.3 ± 11	–	COc1ccc(CCC(=O)c2c(O)cc(O[C@@H]3O[C@H](CO)[C@@H](O)[C@H](O)[C@H]3O[C@@H]3O[C@@H](C)[C@H](O)[C@@H](O)[C@H]3O)cc2O)cc1O [NHDC, neohesperidin dihydrochalcone]
1.0	0.56 ± 0.03	0.84 ± 0.13	1.0	0.65 ± 0.02	1.22 ± 0.11	–	COC(=O)[C@H](Cc1ccccc1)NC(=O)[C@H](CC(=O)O)NCCC(C)(C)C [Neotame]
1.0	1.47 ± 0.07	17.5 ± 2.2	1.0	1.51 ± 0.22	13.8 ± 6.3	–	C=C(C)[C@@H]1CC=C(/C=N/O)CC1 [Perillartine, perillartine]
1.0	1.12 ± 0.01	16.9 ± 0.5	1.0	0.69 ± 0.02	40.4 ± 2.9	–	C=C1C[C@@]23CC[C@H]4[C@@](C)(CCC[C@@]4(C)C(=O)O[C@@H]4O[C@H](CO)[C@@H](O)[C@H](O[C@@H]5O[C@H](CO)[C@@H](O)[C@H](O)[C@H]5O)[C@H]4O[C@@H]4O[C@H](CO)[C@@H](O)[C@H](O)[C@H]4O)[C@@H]2CC[C@]1(O[C@@H]1O[C@H](CO)[C@@H](O)[C@H](O[C@@H]2O[C@H](CO)[C@@H](O)[C@H](O)[C@H]2O)[C@H]1O[C@@H]1O[C@H](CO)[C@@H](O)[C@H](O)[C@H]1O)C3 [Rebaudioside M, rebaudioside M]
1.0	0.59 ± 0.03	90 ± 11	1.0	0.65 ± 0.01	109 ± 4	–	OC[C@H]1O[C@H](O[C@]2(CCl)O[C@H](CCl)[C@@H](O)[C@@H]2O)[C@H](O)[C@@H](O)[C@H]1Cl [Sucralose]
1.0	1.17 ± 0.04	–	1.0	0.88 ± 0.03	–	112.8 ± 11.2	brazzein (QDKCKKVYENYPVSKCQLANQCNYDCKLDKHARSGECFYDEKRNLQCICDYCEY; ends and bridges not checked; cysteine pairing not given here; UniProt P56552 1-54, looked up) [sweet-tasting protein obtained by recombinant production using the yeast Pichia pastoris]
1.0	0.72 ± 0.01	–	1.0	0.57 ± 0.02	–	–	thaumatin
–	–	7.6 ± 0.3	–	–	10.4 ± 0.6	–	thaumatin (protein, Eight disulfides, sweet-tasting plant protein, E957) ATFEIVNRCSYTVWAAASKGDAALDAGGRQLNSGESWTINVEPGTKGGKIWARTDCYFDDSGSGICKTGDCGGLLRCKRFGRPPTTLAEFSLNQYGKDYIDISNIKGFNVPMDFSPTTRGCRGVRCAADIVGQCPAKLKAPGGGCNDACTVFQTSEYCCTTGKCGPTEYSRFFKRLCPDAFSYVLDKPTTVTCPGSSNYRVTFCPTA

Molecule	R1 = Variant EC50/WT EC50 (TAS1R2-WT + TAS1R3-WT)	Max ΔF/F0 (TAS1R2-WT + TAS1R3-WT)	EC50 [1] [µM]	R1 = Variant EC50/WT EC50 (TAS1R2-WT/TAS1R3-WT)	Max ΔF/F0 (TAS1R2-WT/TAS1R3-WT)	EC50 [2] [µM]	EC50 (TAS1R2-WT/TAS1R3-WT, brazzein) [µg/mL]
O=S(=O)(O)NC1CCCCC1 [Cyclamate, cyclamate]	–	–	1890 ± 46	–	–	1590 ± 28	–
C[C@H](CC[C@@H](O[C@@H]1O[C@H](CO[C@@H]2O[C@H](CO)[C@@H](O)[C@H](O)[C@H]2O)[C@@H](O)[C@H](O)[C@H]1O[C@@H]1O[C@H](CO)[C@@H](O)[C@H](O)[C@H]1O)C(C)(C)O)[C@H]1CC[C@@]2(C)[C@@H]3CC=C4[C@@H](CC[C@H](O[C@@H]5O[C@H](CO[C@@H]6O[C@H](CO)[C@@H](O)[C@H](O)[C@H]6O)[C@@H](O)[C@H](O)[C@H]5O)C4(C)C)[C@]3(C)[C@H](O)C[C@]12C [Mogroside V, mogroside V]	1.0	1.28 ± 0.03	17.3 ± 1.2	1.0	0.93 ± 0.01	31.3 ± 0.8	–
